Like-named read-outs stand apart in the source and are kept apart here. Blank lines part the entries; values can stand above or below the molecule they belong to.
How the values were obtained:
[1] = system: rat primary hepatocytes; assay: Inhibition of EZE-Ph uptake into rat primary hepatocytes by bile acids and rifampicin; conditions: 10 μM EZE-Ph, 10 min
Description: Rat primary hepatocytes were isolated from male SD rats as previously described [34]. Fresh rat hepatocytes (120,000 per well) were cultured in Williams’ E medium (containing 0.1 μM dexamethasone, 5% fetal bovine serum, 1% penicillin G/streptomycin, 1% GlutaMAX-I, and 1% insulin–transferrin–selenium) on collagen I-coated 48-well plates. Rat hepatocytes cultured for 4 h under a carbogen atmosphere were directly used for uptake assays.
The hepatocytes were rinsed three times with HBSS (37 °C) and equilibrated in HBSS for 10 min. […] After 10 min of incubation, cells were quickly washed three times with ice-cold HBSS and then lysed by the addition of 300 μL of purified water. The protein content was measured using the BCA protein assay kit. EZE and EZE-Ph were analyzed by LC-MS/MS.
The rates of substrate uptake were normalized using the protein contents of cell lysates.

[2] = target: T1, OATP1B3 (Homo sapiens, UniProt Q9NPD5); assay: Inhibition of OATP1B3-mediated uptake in OATP1B3-transfected HEK293 cells by bile acids and rifampicin
T1 sequence (Q9NPD5 1-702): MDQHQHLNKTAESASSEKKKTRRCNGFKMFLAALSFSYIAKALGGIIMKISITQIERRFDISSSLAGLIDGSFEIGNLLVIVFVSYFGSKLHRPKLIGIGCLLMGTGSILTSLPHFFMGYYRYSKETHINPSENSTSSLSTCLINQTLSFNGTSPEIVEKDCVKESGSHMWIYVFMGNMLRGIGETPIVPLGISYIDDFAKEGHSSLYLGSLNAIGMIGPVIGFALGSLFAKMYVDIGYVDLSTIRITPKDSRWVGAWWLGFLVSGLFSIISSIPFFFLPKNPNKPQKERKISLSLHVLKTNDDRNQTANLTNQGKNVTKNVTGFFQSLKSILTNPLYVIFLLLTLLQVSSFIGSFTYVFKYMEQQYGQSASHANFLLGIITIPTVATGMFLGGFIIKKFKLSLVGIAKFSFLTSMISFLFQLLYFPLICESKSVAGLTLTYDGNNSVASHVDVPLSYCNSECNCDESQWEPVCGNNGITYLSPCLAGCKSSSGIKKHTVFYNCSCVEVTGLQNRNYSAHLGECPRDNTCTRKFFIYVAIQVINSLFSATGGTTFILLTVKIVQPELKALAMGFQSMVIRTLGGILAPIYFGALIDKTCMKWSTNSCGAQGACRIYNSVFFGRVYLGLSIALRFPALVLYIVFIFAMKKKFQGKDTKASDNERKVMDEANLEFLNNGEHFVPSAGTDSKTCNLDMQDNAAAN

[3] = system: UGTs; assay: Inhibition of EZE glucuronidation by bile acids in rat liver S9; assay type: in vitro ADME; conditions: liver S9 fractions, pH 7.4, probe EZE (ezetimibe), 3 μM; formation of EZE-Ph; rat liver S9, 3 μM EZE, bile acids up to 100 μM; read-out: inhibition of EZE-Ph generation
Description: To evaluate the effect of hepatic impairment on the hepatic metabolism of EZE, 0.3 μM, 3 μM, and 30 μM EZE were incubated with rat liver S9 fractions (2 mg of protein/mL) at 37 °C for 60 min in the Tris-HCl-buffered system (100 mM, pH 7.4), consisting of UDPGA (1 mM), MgCl2 (10 mM), and alamethicin (25 μg/mL). To investigate the effect of bile acids on the metabolism of EZE in the liver, 3 μM EZE was incubated with rat or human liver S9 fractions (2 mg of protein/mL) at 37 °C for 60 min in the Tris-HCl-buffered system with or without bile acids at 1, 10, and 100 μM. The total volume of the incubation system was 100 μL. The reactions were terminated by adding 100 μL of ice-cold acetonitrile. Samples were stored at −20 °C until analysis. EZE and EZE-Ph were detected by liquid chromatography with tandem mass spectrometry (LC-MS/MS).

[4] = patients with moderate CLD; cited from earlier work
[5] = target: T1, OATP1B3
[6] = substrate: O=C(O)C1OC(Oc2ccc([C@@H]3[C@@H](CC[C@H](O)c4ccc(F)cc4)C(=O)N3c3ccc(F)cc3)cc2)C(O)C(O)C1O; assay: Uptake of EZE-Ph into OAT3-transfected HEK293 cells; assay type: in vitro ADME, human; conditions: other: OAT3 HEK293, uptake time 5 min; 37.0 °C
Description: (§1) The kinetic parameters and the half inhibitory concentration (IC50) were calculated using GraphPad Prism. […] The intrinsic clearance (CLint) was calculated as CLint = Vmax/Km.

[7] = substrate: O=C(O)C1OC(Oc2ccc([C@@H]3[C@@H](CC[C@H](O)c4ccc(F)cc4)C(=O)N3c3ccc(F)cc3)cc2)C(O)C(O)C1O; assay: Uptake of EZE-Ph into OATP2B1-transfected HEK293 cells; assay type: in vitro ADME, human; conditions: other: OATP2B1 HEK293, uptake time 5 min; 37.0 °C
Description: as §1

[8] = substrate: O=C(O)C1OC(Oc2ccc([C@@H]3[C@@H](CC[C@H](O)c4ccc(F)cc4)C(=O)N3c3ccc(F)cc3)cc2)C(O)C(O)C1O; assay: Uptake of EZE-Ph into OATP1B1-transfected HEK293 cells; assay type: in vitro ADME, human; conditions: other: OATP1B1 HEK293, uptake time 5 min; 37.0 °C
Description: as §1

Molecule: C[C@H](CCC(=O)NCCS(=O)(=O)O)[C@H]1CC[C@H]2[C@@H]3[C@H](O)C[C@@H]4C[C@H](O)CC[C@]4(C)[C@H]3C[C@H](O)[C@]12C [TCA, taurocholic acid]
- EZE-Ph uptake by rat hepatocytes in the presence of inhibitor ([1]; inhibitor 1 μM): 94.1%
- EZE-Ph uptake by rat hepatocytes in the presence of inhibitor ([1]; inhibitor 100 μM): 13.9%
- IC50 [2]: 93.1 µM
- inhibition at 60 min [3]: < 40%

Molecule: C=CCN1CC[C@]23c4c5ccc(O)c4O[C@H]2C(=O)CC[C@@]3(O)[C@H]1C5 [Naloxone]
- decrease of clearance [4]: over 50%

- IC50 [5]: 7.94 µM
Molecule: C[C@H](CCC(=O)NCCS(=O)(=O)O)[C@H]1CC[C@H]2[C@@H]3[C@H](O)C[C@@H]4C[C@H](O)CC[C@]4(C)[C@H]3CC[C@]12C [TCDCA, taurochenodeoxycholic acid]

- EZE-Ph uptake by rat hepatocytes in the presence of inhibitor ([1]; inhibitor 1 μM): 109%
- EZE-Ph uptake by rat hepatocytes in the presence of inhibitor ([1]; inhibitor 10 μM): 64.1%
- EZE-Ph uptake by rat hepatocytes in the presence of inhibitor ([1]; inhibitor 100 μM): 16.3%
- IC50 [2]: 79.7 µM
- inhibition at 60 min [3]: < 40%
Molecule: C[C@H](CCC(=O)NCC(=O)O)[C@H]1CC[C@H]2[C@@H]3[C@H](O)C[C@@H]4C[C@H](O)CC[C@]4(C)[C@H]3C[C@H](O)[C@]12C [GCA, glycocholic acid]

B1: OAT3 (Homo sapiens) (protein)
chain: MTFSEILDRVGSMGHFQFLHVAILGLPILNMANHNLLQIFTAATPVHHCRPPHNASTGPWVLPMGPNGKPERCLRFVHPPNASLPNDTQRAMEPCLDGWVYNSTKDSIVTEWDLVCNSNKLKEMAQSIFMAGILIGGLVLGDLSDRFGRRPILTCSYLLLAASGSGAAFSPTFPIYMVFRFLCGFGISGITLSTVILNVEWVPTRMRAIMSTALGYCYTFGQFILPGLAYAIPQWRWLQLTVSIPFFVFFLSSWWTPESIRWLVLSGKSSKALKILRRVAVFNGKKEEGERLSLEELKLNLQKEISLAKAKYTASDLFRIPMLRRMTFCLSLAWFATGFAYYSLAMGVEEFGVNLYILQIIFGGVDVPAKFITILSLSYLGRHTTQAAALLLAGGAILALTFVPLDLQTVRTVLAVFGKGCLSSSFSCLFLYTSELYPTVIRQTGMGVSNLWTRVGSMVSPLVKITGEVQPFIPNIIYGITALLGGSAALFLPETLNQPLPETIEDLENWSLRAKKPKQEPEVEKASQRIPLQPHGPGLGSS
notes: host or cells: HEK293
- Km [6]: 166 µM
- Vmax [6]: 0.000306 µmol/min/mg
- Vmax/Km [6]: 1.84 µL/min/mg

B2: OATP2B1 (Homo sapiens) (protein)
chain: MGPRIGPAGEVPQVPDKETKATMGTENTPGGKASPDPQDVRPSVFHNIKLFVLCHSLLQLAQLMISGYLKSSISTVEKRFGLSSQTSGLLASFNEVGNTALIVFVSYFGSRVHRPRMIGYGAILVALAGLLMTLPHFISEPYRYDNTSPEDMPQDFKASLCLPTTSAPASAPSNGNCSSYTETQHLSVVGIMFVAQTLLGVGGVPIQPFGISYIDDFAHNSNSPLYLGILFAVTMMGPGLAFGLGSLMLRLYVDINQMPEGGISLTIKDPRWVGAWWLGFLIAAGAVALAAIPYFFFPKEMPKEKRELQFRRKVLAVTDSPARKGKDSPSKQSPGESTKKQDGLVQIAPNLTVIQFIKVFPRVLLQTLRHPIFLLVVLSQVCLSSMAAGMATFLPKFLERQFSITASYANLLIGCLSFPSVIVGIVVGGVLVKRLHLGPVGCGALCLLGMLLCLFFSLPLFFIGCSSHQIAGITHQTSAHPGLELSPSCMEACSCPLDGFNPVCDPSTRVEYITPCHAGCSSWVVQDALDNSQVFYTNCSCVVEGNPVLAGSCDSTCSHLVVPFLLLVSLGSALACLTHTPSFMLILRGVKKEDKTLAVGIQFMFLRILAWMPSPVIHGSAIDTTCVHWALSCGRRAVCRYYNNDLLRNRFIGLQFFFKTGSVICFALVLAVLRQQDKEARTKESRSSPAVEQQLLVSGPGKKPEDSRV
notes: host or cells: HEK293
- Km [7]: 119 µM
- Vmax [7]: 6.69e-05 µmol/min/mg
- Vmax/Km [7]: 0.56 µL/min/mg

B3: OATP1B1 (Homo sapiens) (protein)
chain: MDQNQHLNKTAEAQPSENKKTRYCNGLKMFLAALSLSFIAKTLGAIIMKSSIIHIERRFEISSSLVGFIDGSFEIGNLLVIVFVSYFGSKLHRPKLIGIGCFIMGIGGVLTALPHFFMGYYRYSKETNINSSENSTSTLSTCLINQILSLNRASPEIVGKGCLKESGSYMWIYVFMGNMLRGIGETPIVPLGLSYIDDFAKEGHSSLYLGILNAIAMIGPIIGFTLGSLFSKMYVDIGYVDLSTIRITPTDSRWVGAWWLNFLVSGLFSIISSIPFFFLPQTPNKPQKERKASLSLHVLETNDEKDQTANLTNQGKNITKNVTGFFQSFKSILTNPLYVMFVLLTLLQVSSYIGAFTYVFKYVEQQYGQPSSKANILLGVITIPIFASGMFLGGYIIKKFKLNTVGIAKFSCFTAVMSLSFYLLYFFILCENKSVAGLTMTYDGNNPVTSHRDVPLSYCNSDCNCDESQWEPVCGNNGITYISPCLAGCKSSSGNKKPIVFYNCSCLEVTGLQNRNYSAHLGECPRDDACTRKFYFFVAIQVLNLFFSALGGTSHVMLIVKIVQPELKSLALGFHSMVIRALGGILAPIYFGALIDTTCIKWSTNNCGTRGSCRTYNSTSFSRVYLGLSSMLRVSSLVLYIILIYAMKKKYQEKDINASENGSVMDEANLESLNKNKHFVPSAGADSETHC
notes: host or cells: HEK293
- Km [8]: 91.5 µM
- Vmax [8]: 5.17e-05 µmol/min/mg
- Vmax/Km [8]: 0.56 µL/min/mg
